Laboratory results published in US7592160B2, “Processes for producing isomaltose and isomaltitol and use thereof” (Kabushiki Kaisha Hayashibara Seibutsu Kagaku Kenkyujo, priority 2001, dated 2009).

What was measured:
[1] = test system: α-isomaltosyl-transferring enzyme; test: Influence of metal ions on α-isomaltosyl-transferring enzyme activity (C9 strain); type: biochemical, Bacillus globisporus C9 strain; settings: for Relative activity (%): in the presence of 1 mM of each metal-ion, None = 100; for effect on the enzyme activity, in words: 1 mM, Table 4
Description: (§1) The activity of α-isomaltosyl-transferring enzyme was assayed by dissolving panose in 100 mM acetate buffer (pH 6.0) to give a concentration of 2% (w/v) for a substrate solution, adding a 0.5 ml of an enzyme solution to 0.5 ml of the substrate solution, enzymatically reacting the mixture solution at 35° C. for 30 min, suspending the enzymatic reaction by boiling the solution for 10 min, and quantifying glucose, among the cyclotetrasaccharide and glucose formed mainly in the reaction mixture, by the glucose oxidase method. One unit activity of α-isomaltosyl-transferring enzyme is defined as the enzyme amount that forms one micromole of glucose per minute under the above enzymatic reaction conditions. Throughout the specification, the enzymatic activity of α-isomaltosyl-transferring enzyme means the unit(s) assayed as above.
(§2) The influence of metal ions on the activity of α-isomaltosyl-transferring enzyme was examined in the presence of 1 mM of each metal-ion according to the assay for its enzyme activity.

[2] = test system: α-isomaltosyl-transferring enzyme; test: Influence of metal ions on α-isomaltosyl-transferring enzyme activity (S1 strain); type: biochemical, Arthrobacter ramosus S1 strain; settings: for Relative activity (%): in the presence of 1 mM of each metal-ion, None = 100; for effect on the enzyme activity, in words: 1 mM, Table 21
Description: as §1, §2

[3] = test system: α-isomaltosyl-transferring enzyme; test: Influence of metal ions on α-isomaltosyl-transferring enzyme activity (C11 strain); type: biochemical, Bacillus globisporus C11 strain; settings: for Relative activity (%): in the presence of 1 mM of each metal-ion, None = 100; for effect on the enzyme activity, in words: 1 mM, text on Table 8
Description: as §1, §2

[4] = test system: α-isomaltosyl-transferring enzyme; test: Influence of metal ions on α-isomaltosyl-transferring enzyme activity (N75 strain); type: biochemical, Bacillus globisporus N75 strain; settings: for Relative activity (%): in the presence of 1 mM of each metal-ion, None = 100; for effect on the enzyme activity, in words: 1 mM, Table 14
Description: as §1
The influence of temperature and pH on the activity of α-isomaltosyl-transferring enzyme was examined in accordance with the assay for its enzyme activity. […] The thermal stability of the enzyme was determined by incubating the testing enzyme solutions in the form of 20 mM acetate buffer (pH 6.0) at prescribed temperatures for 60 min, cooling the resulting enzyme solutions with water, and assaying the remaining enzyme activity of each solution. The pH stability of the enzyme was determined by keeping the testing enzyme solutions in the from of 50 mM buffers having prescribed pHs at 4° C. for 24 hours, adjusting the pH of each solution to 6.0, and assaying the remaining enzyme activity of each solution. […] The influence of metal ions on the activity of α-isomaltosyl-transferring enzyme was examined in the presence of 1 mM of each metal-ion according to the assay for its enzyme activity.

[5] = test system: α-isomaltosylglucosaccharide-forming enzyme; test: Influence of metal ions on α-isomaltosylglucosaccharide-forming enzyme activity (A19 strain); type: biochemical, Arthrobacter globiformis A19 strain; settings: for Relative activity (%): in the presence of 1 mM of each metal-ion, None = 100; for effect on the enzyme activity, in words: 1 mM, Table 19
[6] = test system: α-isomaltosylglucosaccharide-forming enzyme; test: Influence of metal ions on α-isomaltosylglucosaccharide-forming enzyme activity (C11 strain); type: biochemical, Bacillus globisporus C11 strain; settings: for effect on the enzyme activity, in words: 1 mM, Table 7; for Relative activity (%): in the presence of 1 mM of each metal-ion, None = 100
[7] = test system: α-isomaltosylglucosaccharide-forming enzyme; test: Influence of metal ions on α-isomaltosylglucosaccharide-forming enzyme activity (C9 strain); type: biochemical, Bacillus globisporus C9 strain; settings: for effect on the enzyme activity, in words: 1 mM, Table 3; for Relative activity (%): in the presence of 1 mM of each metal-ion, None = 100
Description: (§3) About 20 L of a fresh preparation of the same liquid culture medium as used in the above seed culture were placed in a 30-L fermentor, sterilized by heating, and then cooled to 27° C. and inoculated with 1% (v/v) of the seed culture, followed by culturing at 27° C. and pH 6.0 to 8.0 for 48 hours under aeration-agitation conditions. […] These activities were assayed as follows: The activity of α-isomaltosylglucosaccharide-forming enzyme was assayed by dissolving maltotriose in 100 mM acetate buffer (pH 6.0) to give a concentration of 2% (w/v) for a substrate solution, adding a 0.5 ml of an enzyme solution to a 0.5 ml of the substrate solution, enzymatically reacting the mixture solution at 35° C. for 60 min, suspending the enzymatic reaction by boiling the solution for 10 min, and quantifying maltose, among the isomaltosyl maltose and maltose formed mainly in the reaction mixture, on HPLC disclosed in Experiment 1. One unit activity of α-isomaltosylglucosaccharide-forming enzyme is defined as the enzyme amount that forms one micromole of maltose per minute under the above enzymatic reaction conditions. Throughout the specification, the enzymatic activity of α-isomaltosylglucosaccharide-forming enzyme means the unit(s) assayed as above.
(§4) The influence of metal ions on the activity of α-isomaltosylglucosaccharide-forming enzyme was examined in the presence of 1 mM of each metal-ion according to the assay for its enzyme activity.

[8] = test system: α-isomaltosylglucosaccharide-forming enzyme; test: Influence of metal ions on α-isomaltosylglucosaccharide-forming enzyme activity (N75 strain); type: biochemical, Bacillus globisporus N75 strain; settings: for Relative activity (%): in the presence of 1 mM of each metal-ion, None = 100; for effect on the enzyme activity, in words: 1 mM, Table 13
Description: as §3, §4

| Structure (SMILES) | Relative activity (%) [1] | Relative activity (%) [2] | Relative activity (%) [3] | Relative activity (%) [4] | Relative activity (%) [5] | effect on the enzyme activity, in words [6] | Relative activity (%) [6] | effect on the enzyme activity, in words [7] | Relative activity (%) [7] | Relative activity (%) [8] | effect on the enzyme activity, in words [1] | effect on the enzyme activity, in words [2] | effect on the enzyme activity, in words [3] | effect on the enzyme activity, in words [8] | effect on the enzyme activity, in words [4] | effect on the enzyme activity, in words [5] | Relative activity (%) ([2]; listed as Fe^3+) | Relative activity (%) ([3]; listed as Fe^3+) | Relative activity (%) ([4]; listed as Fe^3+) | Relative activity (%) ([5]; listed as Fe^3+) |
| --- | --- | --- | --- | --- | --- | --- | --- | --- | --- | --- | --- | --- | --- | --- | --- | --- | --- | --- | --- | --- |
| [Al+3] [Al^3+] | 103% | 93% | 89% | 94% | 37% | – | – | – | – | – | – | – | – | – | – | – | – | – | – | – |
| [Ba+2] [Ba^2+] | 102% | 97% | 90% | 102% | 99% | also inhibited | 65% | also inhibited | 65% | 84% | – | – | – | – | – | – | – | – | – | – |
| [Co+2] [Co^2+] | 103% | 91% | 89% | 92% | 93% | – | 96% | – | 100% | 93% | – | – | – | – | – | – | – | – | – | – |
| [Hg+2] [Hg^2+] | 1% | 0.1% | 2% | 0.5% | 0% | strongly inhibited | 4% | strongly inhibited | 4% | 1% | strongly inhibited | strongly inhibited | strongly inhibited | strongly inhibited | strongly inhibited | strongly inhibited | – | – | – | – |
| [Ni+2] [Ni^2+] | 102% | 87% | 89% | 91% | 46% | – | – | – | – | – | – | – | – | – | – | – | – | – | – | – |
| [Pb+2] [Pb^2+] | 89% | 85% | 74% | 69% | 43% | – | 101% | – | 103% | 86% | – | – | – | – | – | – | – | – | – | – |

More lines, now with the values ahead:

| Relative activity (%) [1] | Relative activity (%) [2] | Relative activity (%) [3] | Relative activity (%) [4] | Relative activity (%) [5] | effect on the enzyme activity, in words [6] | Relative activity (%) [6] | effect on the enzyme activity, in words [7] | Relative activity (%) [7] | Relative activity (%) [8] | effect on the enzyme activity, in words [1] | effect on the enzyme activity, in words [2] | effect on the enzyme activity, in words [3] | effect on the enzyme activity, in words [8] | effect on the enzyme activity, in words [4] | effect on the enzyme activity, in words [5] | Relative activity (%) ([2]; listed as Fe^3+) | Relative activity (%) ([3]; listed as Fe^3+) | Relative activity (%) ([4]; listed as Fe^3+) | Relative activity (%) ([5]; listed as Fe^3+) | Structure (SMILES) |
| --- | --- | --- | --- | --- | --- | --- | --- | --- | --- | --- | --- | --- | --- | --- | --- | --- | --- | --- | --- | --- |
| 101% | 103% | 91% | 100% | 106% | activated | 109% | activated | 115% | 108% | not activated | neither activated | not activated | activated | not activated | – | – | – | – | – | [Ca+2] [Ca^2+] |
| 57% | 2% | 56% | 15% | 0% | strongly inhibited | 23% | strongly inhibited | 15% | 7% | also inhibited | also inhibited | also inhibited | strongly inhibited | also inhibited | strongly inhibited | – | – | – | – | [Cu+2] [Cu^2+] |
| 104% | 91% | 98% | 92% | 2% | strongly inhibited | 24% | strongly inhibited | 20% | 35% | not inhibited | neither activated | not inhibited | strongly inhibited | not inhibited | strongly inhibited | – | – | – | – | O=C(O)CN(CCN(CC(=O)O)CC(=O)O)CC(=O)O [EDTA, ethylenediaminetetraacetic acid] |
| – | – | – | – | 36% | – | – | – | – | 82% | – | – | – | – | – | – | 75% | 88% | 90% | 35% | [Fe+2] [Fe^2+] |
| 101% | 101% | 93% | 91% | 102% | also inhibited | 83% | also inhibited | 80% | 85% | – | – | – | – | – | – | – | – | – | – | [Sr+2] [Sr^2+] |
| 88% | 78% | 83% | 75% | 56% | – | 91% | – | 92% | 82% | – | – | – | – | – | – | – | – | – | – | [Zn+2] [Zn^2+] |
